Measurements from patent publication US20260294905A1, “USE OF PLURALITY OF COMPOUNDS IN PREPARATION OF DRUG FOR TREATING MYELOPROLIFERATIVE NEOPLASMS” (THE SECOND XIANGYA HOSPITAL OF CENTRAL SOUTH UNIVERSITY, priority 2022, published 2026).
Where “and” joins values, the source holds several entries; their conditions need not be identical. Equal entries are not always repeated. Entries after “also recorded” stand apart in the source; their conditions may differ.

Columns and labels:
[1] = system: HEL cells (human erythroleukemia cell line); experiment: Annexin V-PI staining and flow cytometry, apoptosis of HEL cells, 24 h; assay type: cell-based
Protocol: • 1. the cell lines and inhibitors were the same as those in Example 1. • 2. detection of cell apoptosis
(§1) To detect the apoptosis-promoting effect of the inhibitors, HEL naïve cell strains were treated with Ruxolitinib and the compounds for 24 hours respectively (with concentrations of: 0, 0.1, 0.5, 1 μM or 0, 0.1, 0.3, 1, 3, 10 μM), and added with DMSO to make up to the same amount. 3 parallel replicate groups were set up, and cell apoptosis was detected by Annexin V and PI staining followed by flow cytometry.
(§2) A calculation formula of cell apoptosis rate was: cell apoptosis rate=the ratio of early apoptotic cells (Annexin V^+/PI^−)+the ratio of late apoptotic cells and necrotic cells (Annexin V^+/PI^+).

[2] = system: HEL^RE cells (Ruxolitinib-resistant HEL); experiment: Annexin V-PI staining and flow cytometry, apoptosis of HEL^RE cells; assay type: cell-based, human; settings: for average apoptosis rate of HEL-RE cells: 24 h; for promotion of apoptosis of HEL^RE cells (in words): 0.1-10 μM
Protocol: as §1, §2
In order to detect the effects of compounds on the abilities of drug-resistant myeloproliferative neoplasm cells, the method was to treat HEL^RE with increasing concentrations of Ruxolitinib and the compounds, and to detect cell apoptosis by Annexin V and PI staining followed by flow cytometry.

[3] = system: HEL^RE cells (Ruxolitinib-resistant HEL); experiment: CellTiter-Lumi luminescence proliferation of Ruxolitinib-resistant HEL^RE cells, 48 h; assay type: cell-based, human; settings: HEL^RE cells; for inhibition of proliferation of HEL^RE cells (in words): 0.1-10 μM; for activity at 0.1 µM / activity at 0.3 µM / activity at 1 µM / activity at 3 µM / activity at 10 µM: Homo sapiens, 48 h, vs DMSO control, read-out: average proliferation rate of HEL^RE cells
Excerpt: (§3) HELs (Human erythroleukemia cell lines) and Ruxolitinib-resistant HEL cells were both cultured in a RPMI medium (Gibco) containing 20% heat-inactivated fetal bovine serum (Gibco) and 1% penicillin/streptomycin.
A Ruxolitinib-resistant HEL model, i.e., a HEL^RE model, was constructed by starting the addition of Ruxolitinib at a concentration lower than the IC50 of naïve cells and slowly incrementing the concentration to a high concentration, and preventing the cells from being killed. Our starting concentration was 0.1 μM. The drug was added upon occurrence of cell proliferation. The drug addition gradient was an increment at a multiple of 1.25, and the final concentration was 2.0 μM. Stable drug-resistant cells were obtained after 4-6 weeks.
(§4) Ruxolitinib and other compounds were all purchased from Selleck, dissolved in DMSO with a stock solution concentration of 10 mM, and cryopreserved at −80° C. The working solution was diluted to a specified multiple using a RPMI medium and then used for treating cells. Ruxolitinib was specifically ruxolitinib phosphate.
(§5) To detect the antiproliferative effect of the inhibitor, the aforementioned cell lines were cultured at 3,000 cells/100 μL of the system per well, added with increasing concentrations of Ruxolitinib (concentration gradients of HEL cells: 0, 0.1, 1, 2.5, 5 μM; or 0, 0.1, 0.3, 1, 3, 10 μM), and added with DMSO to make up to the same amount. 4 parallel replicate groups were set up, and 3 blank wells (wells containing culture media without cells) were set up.
(§6) A calculation formula of the cell proliferation rate was: cell proliferation rate=(Luminescence value of the group added with the drug-average Luminescence value of the blank wells)/(Luminescence value of the DMSO control group-average Luminescence value of the blank wells)×100%.
A method for evaluating whether the model was successfully constructed was to compare the IC50s of resistant cells and naïve cells.
(§7) In order to detect the effects of five compounds on the proliferation abilities of drug-resistant myeloproliferative neoplasm cells, the method was to treat HEL^RE with increasing concentrations of Ruxolitinib and the five compounds respectively, and to detect the proliferation of the cells by a CellTiter-Lumi™ luminescence method.

[4] = system: HEL cells (human erythroleukemia cell line); experiment: CellTiter-Lumi luminescence proliferation of naive HEL cells, 48 h; assay type: cell-based; settings: for activity at 0.1 µM / activity at 0.3 µM / activity at 1 µM / activity at 3 µM / activity at 10 µM: Homo sapiens, 48 h, vs DMSO control, read-out: average proliferation rate of HEL cells
Protocol: as §3, §4, §5, §6
as §7, with “the” for “five”, “the HEL naïve cell lines” for “HEL^RE”, “the” for “the five”

[5] = system: myeloproliferative neoplasms patients; settings: clinical use; cited from earlier work
[6] = proliferation and apoptosis taken together

Structure (SMILES) | average apoptosis rate of HEL cells ([1]; 0.1 μM) | average apoptosis rate of HEL cells ([1]; 0.3 μM) | average apoptosis rate of HEL cells ([1]; 1 μM) | average apoptosis rate of HEL cells ([1]; 3 μM) | average apoptosis rate of HEL cells ([1]; 10 μM) | promotion of apoptosis of HEL cells (in words) ([1]; 0.1-10 μM) | average apoptosis rate of HEL-RE cells ([2]; 0.1 μM) | average apoptosis rate of HEL-RE cells ([2]; 0.3 μM) | average apoptosis rate of HEL-RE cells ([2]; 1 μM) | average apoptosis rate of HEL-RE cells ([2]; 3 μM) | average apoptosis rate of HEL-RE cells ([2]; 10 μM) | promotion of apoptosis of HEL^RE cells (in words) [2] | inhibition of proliferation of HEL^RE cells (in words) [3] | activity at 0.1 µM [3] [%] | activity at 0.3 µM [3] [%] | activity at 1 µM [3] [%] | activity at 3 µM [3] [%] | activity at 10 µM [3] [%] | inhibition of proliferation of HEL cells (in words) ([4]; 0.1-10 μM) | activity at 0.1 µM [4] [%] | also measured
Cc1ccc2c(Nc3cccc(Cl)c3F)nccc2c1NC(=O)c1csc2c(N)ncnc12 [Belvarafenib] | 6.58±0.760% and 6.58% | 7.42±0.950% and 7.42% | 7.80±0.700% and 7.80% | 7.17±1.31% and 7.17% | 7.55±0.160% and 7.55% | could not promote apoptosis of the HEL cells | 5.55±0.440% and 5.55% | 5.40±0.570% and 5.40% | 5.71±0.260% and 5.71% | 6.05±0.430% and 6.05% | 7.13±0.450% and 7.13% | could not promote apoptosis of the HEL^RE cells | could inhibit the proliferation of the HEL^RE cells, and this effect increased with increase in the drug concentration | 104 ± 6.13 | 92.4 ± 2.45 | 70.4 | 45.4 ± 2.33 | 31.1 ± 3.6 | could not inhibit the proliferation of the HEL cells | 98.9 ± 6.41 | activity at 0.3 µM [4]: 89.2 ± 4.68%; activity at 1 µM [4]: 98.2 ± 3.19%; activity at 3 µM [4]: 90.1 ± 4.72%; activity at 10 µM [4]: 87.3 ± 2.39%
Cc1cnc(Nc2ccc(OCCN3CCCC3)cc2)nc1Nc1cccc(S(=O)(=O)NC(C)(C)C)c1 [Fedratinib] |  |  |  |  |  |  |  |  |  |  |  |  |  |  |  |  |  |  |  |  | side effects / safety in patients [5]: may cause encephalopathy, including the risk of Wernicke's encephalopathy
NC(=O)NO [Hydroxyurea, hydroxyurea] |  |  |  |  |  |  |  |  |  |  |  |  |  |  |  |  |  |  |  |  | effect on symptoms, clonal hematopoiesis, mutant gene load [5]: can only relieve symptoms but cannot inhibit clonal hematopoiesis; side effects / safety in patients [5]: may increase the risks of myelodysplastic syndrome and acute myelogenous leukemia
Cn1c(Nc2ccc(C(F)(F)F)cc2)nc2cc(Oc3ccnc(-c4ncc(C(F)(F)F)[nH]4)c3)ccc21 [RAF265] | 7.24±1.30% and 7.24% | 7.19±0.400% and 7.19% | 8.11±0.260% and 8.11% | 10.7±1.22% and 10.7% | 12.8±1.44% and 12.8% | could promote the apoptosis of the HEL cells, this effect was increased with the increase of the drug concentration; also recorded: can promote the apoptosis of the HEL cells | 6.48±0.480% and 6.48% | 7.31±0.140% and 7.31% | 8.24±0.730% and 8.24% | 11.9±0.520% and 11.9% | 19.1±3.75% and 19.1% | could promote apoptosis of the HEL^RE cells, and this effect increased with increase in the drug concentration; also recorded: can promote the apoptosis of the HEL^RE cells | could inhibit the proliferation of the HEL^RE cells, and this effect increased with increase in the drug concentration | 92 ± 3.92 | 67.2 ± 3.7 | 35.8 ± 3.88 | 21.8 ± 1.48 | 3.45 ± 0.58 | can successfully inhibit the proliferation of the HEL cells; also recorded: could inhibit the proliferation of the HEL cells, this effect was increased with the increase of the drug concentration | 66.1 ± 4.71 | effect on apoptosis compared with Ruxolitinib ([1]; 0.1-10 μM): its inhibitory effect was better than that of Ruxolitinib; overall effectiveness among the compounds [3, 6]: more effective; inhibitory effect on proliferation compared with Ruxolitinib ([4]; 0.1-10 μM): its inhibitory effect was better than that of Ruxolitinib; activity at 0.3 µM [4]: 45.2 ± 2.96%; activity at 1 µM [4]: 37 ± 2.18%; activity at 3 µM [4]: 30 ± 0.13%; activity at 10 µM [4]: 19.2 ± 0.99%; overall effectiveness among the compounds [4, 6]: more effective
